# Assays:
# [1] = target: T1, Laconic (LldR from Escherichia coli between mTFP and Venus) (Escherichia coli, UniProt P0ACL7); assay: FRET ratio mTFP/Venus, purified sensor; assay type: binding; conditions: 1 mM citrate without lactate; intracellular buffer pH 7.0
# T1 construct: variant 04
# T1 sequence (P0ACL7 1-258): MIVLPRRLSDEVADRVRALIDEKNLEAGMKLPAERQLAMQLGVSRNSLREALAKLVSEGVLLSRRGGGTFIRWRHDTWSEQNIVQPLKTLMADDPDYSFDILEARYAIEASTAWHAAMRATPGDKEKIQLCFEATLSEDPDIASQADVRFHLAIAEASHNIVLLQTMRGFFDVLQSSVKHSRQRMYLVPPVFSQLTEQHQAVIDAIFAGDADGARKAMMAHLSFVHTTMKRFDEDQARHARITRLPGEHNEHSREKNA
# [2] = target: T1, Laconic (LldR from Escherichia coli between mTFP and Venus); assay: FRET ratio mTFP/Venus, purified sensor; assay type: binding; conditions: 0.25, 1 or 10 mM pyruvate with lactate dose-response; effect by interference with lactate; intracellular buffer pH 7.0
Compound,% increase of FRET ratio at 1 mM [1] [%],"FRET ratio mTFP/Venus, purified sensor [2]"
O=C(O)CC(O)(CC(=O)O)C(=O)O [citrate],6,
CC(=O)C(=O)O [pyruvate],,"at high concentrations, pyruvate blocked the effect of low lactate"
